Results on one molecule are retold here after US12128072B2, “Hepatocytes and hepatic non-parenchymal cells, and methods for preparation thereof” (The University of Tokyo, priority 2015, dated 2024).

The subject of the series is mouse CD45-FLK1+CD31+CD34+ cells (liver sinusoidal endothelial progenitor cells). Put plainly: Expression of liver sinusoidal endothelial cell marker genes by quantitative RT-PCR in mouse embryonic liver FLK1+CD31+CD34+ cells. The series is classed as cell-based. The note with it: 5 days after addition of A83-01, versus day 0 before addition; FIG. 45. As to the method:
TRIzol reagent (Life Technologies) or NucleoSpin RNA XS (MACHEREY-NAGAL, Duren, Germany) was used to extract the RNA. The remaining genomic DNA was digested using DNaseI (Life Technologies), and then a PrimeScript II 1st strand cDNA Synthesis Kit (Takara Bio, Shiga, Japan) was used to synthesize single-stranded cDNA. The quantitative RT-PCR was carried out using SYBR Premix EX TaqII (Takara Bio, Shiga, Japan), and the data were calculated according to the ddCt method with β-actin as the standardization control.
Liver was collected from a 12.5-day-old mouse embryo (C57BL/6 mouse). The liver was minced and digested for 10 minutes with Liver Digestion Medium (Life Technologies, California, US). The digested embryonic mouse hepatocytes were subjected to hemolysis and passed through a 70 μm cell strainer (BD Bioscience, New Jersey, US). […]
The FLK1^+CD31^+CD34^+ cells separated above were also seeded in a fibronectin-coated plate to 15,000 cells/cm^2 and cultured in endothelial cell medium. […] The cell count was calculated using a hemocytometer, after dissociating the cells using 0.05% trypsin/0.5 mM EDTA.

For `Cc1cccc(-c2nn(C(=S)Nc3ccccc3)cc2-c2ccnc3ccccc23)n1` [A83-01, 3-(6-methyl-2-pyridinyl)-N-phenyl-4-(4-quinolinyl)-1H-pyrazolo-1-carbothioamide], the “expression of the mature liver sinusoidal endothelial cell marker genes Stab2, F8 and Lyve1” value is reported as “significantly induced expression”.
